Data published in patent US20150045424A1, “COMPOSITION USEFUL FOR THE TREATMENT OF TYPE 2 DIABETES” (SIGMA-TAU INDUSTRIE FARMACEUTICHE RIUNITE S.P.A., priority 2007, published 2015).

Tests used:
Assay type in all cases: in vivo, mouse
C57BL/KsJ db/db mice [1] = assay: Plasma HDL-cholesterol levels of db/db mice; conditions: oral twice daily for 25 days, post-absorption (fasting 9 a.m. to 4.30 p.m.), 7.5 hours after last treatment, n=6
Description: (§1) The C57BL/KsJ db/db mice used in the experiments were supplied by Jackson Lab (via Ch. River). After 10 days of acclimatisation in standard conditions (22±2 [deg.]C.; 55±15% humidity; 15-20 air changes/hour; 12 hour light-darkness cycle with light from 7 a.m. to 7 p.m.) on a standard 4 RF21 diet (Mucedola), blood samples were taken in post-absorption conditions (fasting from 8.30 a.m. to 4.30 p.m.) from the caudal vein with the aid of a Jelco 22G catheter (Johnson and Johnson). Glucose, insulin, triglyceride, cholesterol, free fatty acid and urea levels were checked in the plasma to ensure well-matched distribution of the mice in the treatment groups.
(§2) The mice were divided into groups and treated orally twice daily with:
(§3) Simvastatin 100 mg/kg; L-carnitine inner salt 400 mg/kg; acetyl L-carnitine HCl 592 mg/kg (equimolar amount respect to L-carnitine); propionyl L-carnitine HCl 627 mg/kg (equimolar amount respect to L-carnitine); L-carnitine inner salt 400 mg/kg+Simvastatin 100 mg/kg; acetyl L-carnitine HCl 592 mg/kg+Simvastatin 100 mg/kg; propionyl L-carnitine HCl 627 mg/kg+Simvastatin 100 mg/kg.
(§4) In the course of the experiment, serum glucose levels, glucose tolerance (OGTT), a number of lipid status variables and weight gain were monitored.

C57BL/KsJ db/db mice [2] = assay: Plasma fructosamine levels of db/db mice (indicator of protein glycosylation); conditions: oral twice daily for 25 days, post-absorption (fasting 9 a.m. to 4.30 p.m.), 7.5 hours after last treatment, n=6
Description: as §1, §2, §3, §4

C57BL/KsJ db/db mice [3] = assay: Plasma triglyceride levels of db/db mice; conditions: oral twice daily for 25 days, post-absorption (fasting 9 a.m. to 4.30 p.m.), 7.5 hours after last treatment, n=6
Description: as §1, §2, §3, §4

C57BL/KsJ db/db mice [4] = assay: Blood glucose levels of db/db mice (feeding, post-absorption, fasting); conditions: n=6
Description: A much used genetically diabetic mouse model is the C57BL/KsJ db/db mouse.
The genetic basis of this model is a defect in the leptin receptor gene which gives rise to leptin resistance and leads to hyperphagia, obesity, hyperinsulinaemia and insulin resistance, with subsequent symptoms of insufficient insulin secretion and hyperglycaemia (Kodama et al., Diabetologia 37: 739-744, 1994; Chen et al, Cell 84: 491-495, 1996).
as §1
At the start of treatment, the body weight of the animals was checked and monitoring of the animals' consumption of water and feed was scheduled.
as §2, §3, §4

C57BL/KsJ db/db mice [5] = assay: Oral glucose tolerance test (OGTT) in db/db mice; conditions: oral twice daily for 18 days, OGTT glucose 3 g/kg, fasted 18 hours, 5 hours after last treatment, n=6
Description: as §1, §2, §3, §4

[6] = oral twice daily for 12 days, blood sample in feeding condition, approximately 15 hours after last treatment
[7] = oral twice daily for 12 days, post-absorption condition (fasting 9 a.m. to 5 p.m.), 8 hours after last treatment
[8] = oral twice daily for 18 days, fasted for 18 hours, 5 hours after last treatment

Row | Compound | HDL-cholesterol Mean values (C57BL/KsJ db/db mice [1]) [mg/dL] | Fructosamine Mean values (C57BL/KsJ db/db mice [2]) [mM] | Triglycerides Mean values (C57BL/KsJ db/db mice [3]) [mg/dL] | Glucose Mean values (C57BL/KsJ db/db mice [4]; [6]) [mg/dL] | Glucose Mean values (C57BL/KsJ db/db mice [4]; [7]) [mg/dL] | Glucose Mean values (C57BL/KsJ db/db mice [4]; [8]) [mg/dL] | AUC Glucose (OGTT) Mean values (C57BL/KsJ db/db mice [5]) [u.a.]
1 | CC(=O)O[C@H](CC(=O)[O-])C[N+](C)(C)C [Acetyl L-carnitine, acetyl L-carnitine] | 84.5 | 0.85 | 85.6 | 468.0 | 416.1 | 332.0 | 49332.3
2 | C[N+](C)(C)C[C@H](O)CC(=O)[O-] [L-carnitine] | 84.0 | 0.81 | 85.7 | 470.0 | 416.5 | 324.8 | 50187.8
3 | CCC(=O)O[C@H](CC(=O)[O-])C[N+](C)(C)C [Propionyl L-carnitine, propionyl L-carnitine] | 80.9 | 0.81 | 86.2 | 475.5 | 411 | 328.6 | 49005.5
4 | CCC(C)(C)C(=O)O[C@H]1C[C@@H](C)C=C2C=C[C@H](C)[C@H](CC[C@@H]3C[C@@H](O)CC(=O)O3)[C@H]21 [Simvastatin] | 74.5 | 0.76 | 83.6 | 465.0 | 418.1 | 328.3 | 50973.3
